Measurements reported in ChEMBL document CHEMBL3044870, “Effect of clomazone on various market classes of dry beans” (Crop Prot, 2007).

How the values were obtained:
Type in all cases: organism-based
Conditions in all cases: in vivo, other
Phaseolus vulgaris [1] = test: Phytotoxicity against Phaseolus vulgaris (yellow eye beans) assessed as yield at 1116 g a.i./ha applied pre-emergence 1 to 2 days post-planting measured on day 42 post-emergence (reference value: 2.3 tons/ha)
Phaseolus vulgaris [2] = test: Phytotoxicity against Phaseolus vulgaris (yellow eye beans) assessed as visual crop injury at 2232 g a.i./ha applied pre-emergence 1 to 2 days post-planting measured on day 14 post-emergence relative to control
Phaseolus vulgaris [3] = test: Phytotoxicity against Phaseolus vulgaris (kidney beans) assessed as plant height at 1116 g a.i./ha applied pre-emergence 1 to 2 days post-planting measured on day 28 post-emergence (reference value: 37 cm)
Phaseolus vulgaris [4] = test: Phytotoxicity against Phaseolus vulgaris (dry beans) assessed as visual crop injury at 2232 g a.i./ha applied pre-emergence 1 to 2 days post-planting measured on day 7 post-emergence relative to control
Phaseolus vulgaris [5] = test: Phytotoxicity against Phaseolus vulgaris (dry beans) assessed as visual crop injury at 2232 g a.i./ha applied pre-emergence 1 to 2 days post-planting measured on day 28 post-emergence relative to control
Phaseolus vulgaris [6] = test: Phytotoxicity against Phaseolus vulgaris (cranberry beans) assessed as yield at 1116 g a.i./ha applied pre-emergence 1 to 2 days post-planting measured on day 42 post-emergence (reference value: 3.1 tons/ha)
Phaseolus vulgaris [7] = test: Phytotoxicity against Phaseolus vulgaris (white beans) assessed as yield at 1116 g a.i./ha applied pre-emergence 1 to 2 days post-planting measured on day 42 post-emergence (reference value: 3 tons/ha)
Phaseolus vulgaris [8] = test: Phytotoxicity against Phaseolus vulgaris (yellow eye beans) assessed as plant height at 2232 g a.i./ha applied pre-emergence 1 to 2 days post-planting measured on day 28 post-emergence (reference value: 38 cm)
Phaseolus vulgaris [9] = test: Phytotoxicity against Phaseolus vulgaris (kidney beans) assessed as shoot dry weight at 2232 g a.i./ha applied pre-emergence 1 to 2 days post-planting measured on day 42 post-emergence (reference value: 145 g/m)
Phaseolus vulgaris [10] = test: Phytotoxicity against Phaseolus vulgaris (pinto beans) assessed as yield at 1116 g a.i./ha applied pre-emergence 1 to 2 days post-planting measured on day 42 post-emergence (reference value: 3.1 tons/ha)
Phaseolus vulgaris [11] = test: Phytotoxicity against Phaseolus vulgaris (dry beans) assessed as visual crop injury at 1116 g a.i./ha applied pre-emergence 1 to 2 days post-planting measured on day 7 post-emergence relative to control
Phaseolus vulgaris [12] = test: Phytotoxicity against Phaseolus vulgaris (white beans) assessed as plant height at 1116 g a.i./ha applied pre-emergence 1 to 2 days post-planting measured on day 28 post-emergence (reference value: 36 cm)
Phaseolus vulgaris [13] = test: Phytotoxicity against Phaseolus vulgaris (cranberry beans) assessed as visual crop injury at 2232 g a.i./ha applied pre-emergence 1 to 2 days post-planting measured on day 14 post-emergence relative to control
Phaseolus vulgaris [14] = test: Phytotoxicity against Phaseolus vulgaris (cranberry beans) assessed as visual crop injury at 1116 g a.i./ha applied pre-emergence 1 to 2 days post-planting measured on day 14 post-emergence relative to control
Phaseolus vulgaris [15] = test: Phytotoxicity against Phaseolus vulgaris (pinto beans) assessed as visual crop injury at 1116 g a.i./ha applied pre-emergence 1 to 2 days post-planting measured on day 14 post-emergence relative to control
Phaseolus vulgaris [16] = test: Phytotoxicity against Phaseolus vulgaris (yellow eye beans) assessed as yield at 2232 g a.i./ha applied pre-emergence 1 to 2 days post-planting measured on day 42 post-emergence (reference value: 2.3 tons/ha)
Phaseolus vulgaris [17] = test: Phytotoxicity against Phaseolus vulgaris (yellow eye beans) assessed as visual crop injury at 1116 g a.i./ha applied pre-emergence 1 to 2 days post-planting measured on day 14 post-emergence relative to control
Phaseolus vulgaris [18] = test: Phytotoxicity against Phaseolus vulgaris (cranberry beans) assessed as shoot dry weight at 1116 g a.i./ha applied pre-emergence 1 to 2 days post-planting measured on day 42 post-emergence (reference value: 161 g/m)
Phaseolus vulgaris [19] = test: Phytotoxicity against Phaseolus vulgaris (white beans) assessed as visual crop injury at 1116 g a.i./ha applied pre-emergence 1 to 2 days post-planting measured on day 14 post-emergence relative to control
Phaseolus vulgaris [20] = test: Phytotoxicity against Phaseolus vulgaris (white beans) assessed as plant height at 2232 g a.i./ha applied pre-emergence 1 to 2 days post-planting measured on day 28 post-emergence (reference value: 36 cm)
Phaseolus vulgaris [21] = test: Phytotoxicity against Phaseolus vulgaris (brown beans) assessed as visual crop injury at 1116 g a.i./ha applied pre-emergence 1 to 2 days post-planting measured on day 14 post-emergence relative to control
Phaseolus vulgaris [22] = test: Phytotoxicity against Phaseolus vulgaris (pinto beans) assessed as shoot dry weight at 1116 g a.i./ha applied pre-emergence 1 to 2 days post-planting measured on day 42 post-emergence (reference value: 168 g/m)
Phaseolus vulgaris [23] = test: Phytotoxicity against Phaseolus vulgaris (pinto beans) assessed as yield at 2232 g a.i./ha applied pre-emergence 1 to 2 days post-planting measured on day 42 post-emergence (reference value: 3.1 tons/ha)
Phaseolus vulgaris [24] = test: Phytotoxicity against Phaseolus vulgaris (kidney beans) assessed as visual crop injury at 2232 g a.i./ha applied pre-emergence 1 to 2 days post-planting measured on day 14 post-emergence relative to control
Phaseolus vulgaris [25] = test: Phytotoxicity against Phaseolus vulgaris (brown beans) assessed as shoot dry weight at 1116 g a.i./ha applied pre-emergence 1 to 2 days post-planting measured on day 42 post-emergence (reference value: 149 g/m)
Phaseolus vulgaris [26] = test: Phytotoxicity against Phaseolus vulgaris (otebo beans) assessed as yield at 1116 g a.i./ha applied pre-emergence 1 to 2 days post-planting measured on day 42 post-emergence (reference value: 3.4 tons/ha)
Phaseolus vulgaris [27] = test: Phytotoxicity against Phaseolus vulgaris (otebo beans) assessed as plant height at 1116 g a.i./ha applied pre-emergence 1 to 2 days post-planting measured on day 28 post-emergence (reference value: 38 cm)
Phaseolus vulgaris [28] = test: Phytotoxicity against Phaseolus vulgaris (brown beans) assessed as plant height at 2232 g a.i./ha applied pre-emergence 1 to 2 days post-planting measured on day 28 post-emergence (reference value: 37 cm)
Phaseolus vulgaris [29] = test: Phytotoxicity against Phaseolus vulgaris (kidney beans) assessed as plant height at 2232 g a.i./ha applied pre-emergence 1 to 2 days post-planting measured on day 28 post-emergence (reference value: 37 cm)
Phaseolus vulgaris [30] = test: Phytotoxicity against Phaseolus vulgaris (black beans) assessed as visual crop injury at 1116 g a.i./ha applied pre-emergence 1 to 2 days post-planting measured on day 14 post-emergence relative to control
Phaseolus vulgaris [31] = test: Phytotoxicity against Phaseolus vulgaris (pinto beans) assessed as visual crop injury at 2232 g a.i./ha applied pre-emergence 1 to 2 days post-planting measured on day 14 post-emergence relative to control
Phaseolus vulgaris [32] = test: Phytotoxicity against Phaseolus vulgaris (black beans) assessed as yield at 2232 g a.i./ha applied pre-emergence 1 to 2 days post-planting measured on day 42 post-emergence (reference value: 3.6 tons/ha)

CC1(C)CON(Cc2ccccc2Cl)C1=O [CLOMAZONE]
Crop_yield (Phaseolus vulgaris [1]): 2.6 tons/ha
Activity (Phaseolus vulgaris [2]): 10%
Activity (Phaseolus vulgaris [3]): 35 cm
Activity (Phaseolus vulgaris [4]): 11%
Activity (Phaseolus vulgaris [5]): 4%
Crop_yield (Phaseolus vulgaris [6]): 3.2 tons/ha
Crop_yield (Phaseolus vulgaris [7]): 3.1 tons/ha
Activity (Phaseolus vulgaris [8]): 32 cm
Activity (Phaseolus vulgaris [9]): 116 g/m
Crop_yield (Phaseolus vulgaris [10]): 3.1 tons/ha
Activity (Phaseolus vulgaris [11]): 5%
Activity (Phaseolus vulgaris [12]): 34 cm
Activity (Phaseolus vulgaris [13]): 14%
Activity (Phaseolus vulgaris [14]): 6%
Activity (Phaseolus vulgaris [15]): 4%
Crop_yield (Phaseolus vulgaris [16]): 2.5 tons/ha
Activity (Phaseolus vulgaris [17]): 6%
Activity (Phaseolus vulgaris [18]): 150 g/m
Activity (Phaseolus vulgaris [19]): 2%
Activity (Phaseolus vulgaris [20]): 32 cm
Activity (Phaseolus vulgaris [21]): 3%
Activity (Phaseolus vulgaris [22]): 166 g/m
Crop_yield (Phaseolus vulgaris [23]): 3 tons/ha
Activity (Phaseolus vulgaris [24]): 10%
Activity (Phaseolus vulgaris [25]): 139 g/m
Crop_yield (Phaseolus vulgaris [26]): 3.4 tons/ha
Activity (Phaseolus vulgaris [27]): 37 cm
Activity (Phaseolus vulgaris [28]): 35 cm
Activity (Phaseolus vulgaris [29]): 33 cm
Activity (Phaseolus vulgaris [30]): 3%
Activity (Phaseolus vulgaris [31]): 11%
Crop_yield (Phaseolus vulgaris [32]): 3.3 tons/ha
